Converted amounts (≈) assume the structure as drawn. Values belong to the compound of their own block, whether it stands above or below them.
What was measured:
fungi = conditions: in words; Pettit et al., J. Nat. Prod. 2000; cited from earlier work
bacteria = conditions: in words; Pettit et al., J. Nat. Prod. 2000; cited from earlier work
SF-268 = experiment: Cancer cell growth inhibition, human cancer cell line panel; format: cell-based; conditions: SF-268, CNS Glioblastoma, read-out: Inhibitory Activity (GI50)
KM20L2 = experiment: as above; format: cell-based; conditions: KM-20L2, KM20L2, Colon-adenocarcinoma, read-out: Inhibitory Activity (GI50)
BXPC-3 = experiment: as above; format: cell-based; conditions: BXPC-3, Pancreas-adenocarcinoma, read-out: Inhibitory Activity (GI50)
MCF-7 = experiment: as above; format: cell-based; conditions: MCF7, MCF-7, Breast-adenocarcinoma, read-out: Inhibitory Activity (GI50)
[1] = test system: P388 lymphocytic leukemia; experiment: Cancer cell growth inhibition, murine P388 lymphocytic leukemia; format: cell-based, mouse
Text: Earlier we had observed a number of biologically active blue to black colored fractions arising during P388 lymphocytic leukemia guided separations of a 195 g dichloromethane-soluble portion of the extract obtained from 350 kg (wet wt.) of Cribrochalina sp. The cancer cell growth (P-388) inhibitory dark-colored fractions were finally separated by a successive series of gel permeation and partition chromatographic techniques on Sephadex LH-20. That sequence was followed by high-speed countercurrent distribution using an Ito Coil-Planet centrifuge to afford 88 mg of a dark-blue constituent (P388 ED50 0.3 μg/ml), designated cribrostatin 6 (3). Owing to difficulties in unequivocally deducing the structure of this interesting substance based on spectral evidence, attempts were made at various times over a ten year period to reach a correct solution and/or to produce crystals suitable for X-ray structure determination. We were eventually pleased to find that cribrostatin 6 (3) would crystallize from acetone following long cold storage of the solution. To follow is a summary of the spectral and X-ray crystallographic interpretation that completed a correct structural assignment for cribrostatin 6 (3).
Isolation of Cribrostatin 6 (1). The blue marine sponge Cribrochalina sp. was collected and extracted as known to one of skill in the art, as described in Pettit, G., et al., J. Nat. Prod. […]

DU-145 = experiment: Cancer cell growth inhibition, human cancer cell line panel; format: cell-based; conditions: DU-145, Prostate, read-out: Inhibitory Activity (GI50)
[2] = test system: Group A Streptococcus (clinical isolate); experiment: Broth microdilution susceptibility assay; format: cell-based; conditions: read-out: Minimum Inhibitory Concentration
Text: (§1) Compounds were screened against bacteria and fungi according to established broth microdilution susceptibility assays, pursuant to the National Committee for Clinical Laboratory Standards, Methods for Dilution Antimicrobial Susceptibility Tests for Bacteria that Grow Aerobically, Approved Standard M7-A4, Wayne, Pa.: NCCLS, 1997, and the National Conmnittee for Clinical Laboratory Standards, Reference Method for Broth Dilution Antifungal Susceptibility Testing of Yeasts, Approved Standard M27-A, Wayne, Pa.: NCCLS, 1997. The minimum inhibitory concentration was defined as the lowest concentration of compound that inhibited all visible growth of the test organism (optically clear). Assays were repeated on separate days.

[3] = test system: Neisseria gonorrhoeae (ATCC 49226); experiment: Broth microdilution susceptibility assay; format: cell-based; conditions: ATCC49226, read-out: Minimum Inhibitory Concentration
Text: as §1

[4] = test system: Staphylococcus aureus (ATCC 29213); experiment: Broth microdilution susceptibility assay; format: cell-based; conditions: ATCC29213, read-out: Minimum Inhibitory Concentration
Text: as §1

[5] = test system: Streptococcus pneumoniae (ATCC 6303); experiment: Broth microdilution susceptibility assay; format: cell-based; conditions: ATCC6303, read-out: Minimum Inhibitory Concentration
Text: as §1

[6] = test system: Enterococcus faecalis (ATCC 29212); experiment: Broth microdilution susceptibility assay; format: cell-based; conditions: ATCC29212, read-out: Minimum Inhibitory Concentration
Text: as §1

[7] = test system: Stenotrophomonas maltophilia (ATCC 13637); experiment: Broth microdilution susceptibility assay; format: cell-based; conditions: ATCC13637, read-out: Minimum Inhibitory Concentration
Text: as §1

[8] = test system: Candida albicans (ATCC 90028); experiment: Broth microdilution susceptibility assay; format: cell-based; conditions: ATCC90028, read-out: Minimum Inhibitory Concentration
Text: as §1

[9] = test system: Methicillin-resistant S. aureus (clinical isolate); experiment: Broth microdilution susceptibility assay; format: cell-based; conditions: Staphylococcus aureus, read-out: Minimum Inhibitory Concentration
Text: as §1

[10] = test system: Penicillin-resistant S. pneumoniae (clinical isolate); experiment: Broth microdilution susceptibility assay; format: cell-based; conditions: Streptococcus pneumoniae, read-out: Minimum Inhibitory Concentration
Text: as §1

[11] = test system: Enterobacter cloacae (ATCC 13047); experiment: Broth microdilution susceptibility assay; format: cell-based; conditions: ATCC13047, read-out: Minimum Inhibitory Concentration
Text: as §1

[12] = test system: Escherichia coli (ATCC 25922); experiment: Broth microdilution susceptibility assay; format: cell-based; conditions: ATCC25922, read-out: Minimum Inhibitory Concentration
Text: as §1

[13] = test system: Vancomycin-resistant E. faecalis (clinical isolate); experiment: Broth microdilution susceptibility assay; format: cell-based; conditions: Enterococcus faecalis, read-out: Minimum Inhibitory Concentration
Text: as §1

[14] = test system: Bacillus subtilis (clinical isolate); experiment: Broth microdilution susceptibility assay; format: cell-based; conditions: read-out: Minimum Inhibitory Concentration
Text: as §1

[15] = test system: Cryptococcus neoformans (ATCC 90112); experiment: Broth microdilution susceptibility assay; format: cell-based; conditions: ATCC90112, read-out: Minimum Inhibitory Concentration
Text: as §1

[16] = test system: Invasive S. pneumoniae (clinical isolate); experiment: Broth microdilution susceptibility assay; format: cell-based; conditions: Streptococcus pneumoniae, read-out: Minimum Inhibitory Concentration
Text: as §1

[17] = test system: Micrococcus luteus (Presque Isle 456); experiment: Broth microdilution susceptibility assay; format: cell-based; conditions: read-out: Minimum Inhibitory Concentration
Text: as §1

NCI-H460 = experiment: Cancer cell growth inhibition, human cancer cell line panel; format: cell-based; conditions: NCI-H460, Lung-NSC, read-out: Inhibitory Activity (GI50)

SMILES: CC1=C(N)C(=O)c2c(ccnc2C)C1=O [Cribrostatin 1]
antifungal activity (fungi): not antifungal
antibacterial activity (bacteria): antibacterial

SMILES: C/C=C(/C)C(=O)OCc1nccc2c1C(=O)C(N)=C(C)C2=O [Cribrostatin 3]
antifungal activity (fungi): not antifungal
antibacterial activity (bacteria): antibacterial

GI50 (SF-268): 0.24 µg/mL (≈ 0.888 µM)
GI50 (KM20L2): > 1 µg/mL
GI50 (BXPC-3): > 1 µg/mL
GI50 (MCF-7): 0.21 µg/mL (≈ 0.777 µM)
GI50 ([1]; P388, Mouse Leukemia, read-out: Inhibitory Activity (GI50)): 0.29 µg/mL (≈ 1.07 µM)
GI50 (DU-145): 0.38 µg/mL (≈ 1.41 µM)
MIC [2]: 16 µg/mL (≈ 59.2 µM)
MIC [3]: 0.0625 µg/mL (≈ 0.231 µM)
MIC [4]: 16 µg/mL (≈ 59.2 µM)
MIC [5]: 0.5 µg/mL (≈ 1.85 µM)
MIC [6]: 32 µg/mL (≈ 118 µM)
MIC [7]: > 64 µg/mL
MIC [8]: 64 µg/mL (≈ 237 µM)
MIC [9]: 16 µg/mL (≈ 59.2 µM)
MIC [10]: 2 µg/mL (≈ 7.4 µM)
MIC [11]: > 64 µg/mL
MIC [12]: > 64 µg/mL
MIC [13]: 32 µg/mL (≈ 118 µM)
MIC [14]: 2 µg/mL (≈ 7.4 µM)
MIC [15]: 2 µg/mL (≈ 7.4 µM)
MIC [16]: 1 µg/mL (≈ 3.7 µM)
MIC [17]: 16 µg/mL (≈ 59.2 µM)
GI50 (NCI-H460): > 1 µg/mL
SMILES: CCOC1=C(C)C(=O)c2ccn3c(C)ncc3c2C1=O [Cribrostatin 6, 9-ethoxy-3,8-dimethyl-imidazo[5,1-a]isoquinoline-7, 10-dione]
P388 ED50 ([1]; murine P-388 lymphocytic leukemia cell line): 0.3 µg/mL

— US7317020B2, “Isolation and structure of Cribrostatin 6” (Arizona Board of Regents, a body corporate of the State of …, priority 2003, dated 2008)
